According to ChEMBL document CHEMBL5532651, “HDAC specificity and kinase off-targeting by purine-benzohydroxamate anti-hematological tumor agents” (Eur J Med Chem, 2024):
Calls of active or inactive are those of the source. No cut-off for these calls is given here.

What was measured:
Jurkat [1] = test: Cytotoxicity against human Jurkat cells assessed as cell growth inhibition at 0.02 to 1.3 uM by MTT assay; format: functional, cell-based; conditions: dose 0.02-1.3 µM, time lower 24.0 hrs, time upper […], TDE = time-dependent effect
NAMALVA [2] = test: Cytotoxicity against human NAMALVA cells assessed as cell growth inhibition at 0.1 to 10.5 uM by MTT assay; format: functional, cell-based; conditions: dose 0.1-10.5 µM, time lower 24.0 hrs, time upper […], TDE = time-dependent effect
[3] = molecular target: T1, Tyrosine-protein kinase JAK2 (Homo sapiens, UniProt O60674); test: Inhibition of JAK2 (unknown origin) preincubated for 30 mins followed by ATP addition measured after 30 mins by HTRF assay
[4] = molecular target: Tyrosine-protein kinase JAK3 (Homo sapiens, UniProt P52333); test: Inhibition of recombinant human JAK3 (781 to 1124 residues) in presence of ATP by ELISA
[5] = molecular target: Tyrosine-protein kinase BTK (Homo sapiens) (UniProt Q06187); test: Inhibition of BTK (unknown origin) at 100 uM preincubated for 20 mins followed by 33P-ATP addition measured after 2 hrs by HotSpot kinase assay relative to control; conditions: time 140.0 min
[6] = molecular target: Cyclin-dependent kinase 4 (Homo sapiens) (UniProt P11802); test: Inhibition of CDK4 (unknown origin) at 100 uM preincubated for 20 mins followed by 33P-ATP addition measured after 2 hrs by HotSpot kinase assay relative to control; conditions: time 140.0 min
[7] = molecular target: Tyrosine-protein kinase JAK1 (Homo sapiens) (UniProt P23458); test: Inhibition of JAK1 (unknown origin) at 100 uM preincubated for 20 mins followed by 33P-ATP addition measured after 2 hrs by HotSpot kinase assay relative to control; conditions: time 140.0 min
[8] = molecular target: T1, Tyrosine-protein kinase JAK2; test: Inhibition of JAK2 (unknown origin) at 100 uM preincubated for 20 mins followed by 33P-ATP addition measured after 2 hrs by HotSpot kinase assay relative to control; conditions: time 140.0 min
[9] = molecular target: Tyrosine-protein kinase JAK3 (Homo sapiens) (UniProt P52333); test: Inhibition of JAK3 (unknown origin) at 100 uM preincubated for 20 mins followed by 33P-ATP addition measured after 2 hrs by HotSpot kinase assay relative to control; conditions: time 140.0 min
[10] = molecular target: Tyrosine-protein kinase SYK (Homo sapiens) (UniProt P43405); test: Inhibition of SYK (unknown origin) at 100 uM preincubated for 20 mins followed by 33P-ATP addition measured after 2 hrs by HotSpot kinase assay relative to control; conditions: time 140.0 min
[11] = molecular target: Phosphatidylinositol 4,5-bisphosphate 3-kinase catalytic subunit alpha isoform (Homo sapiens) (UniProt P42336); test: Inhibition of PI3Ka (unknown origin) at 100 uM preincubated for 20 mins followed by 33P-ATP addition measured after 2 hrs by HotSpot kinase assay relative to control; conditions: time 140.0 min
[12] = molecular target: Phosphatidylinositol 4,5-bisphosphate 3-kinase catalytic subunit beta isoform (Homo sapiens) (UniProt P42338); test: Inhibition of PI3Kb (unknown origin) at 100 uM preincubated for 20 mins followed by 33P-ATP addition measured after 2 hrs by HotSpot kinase assay relative to control; conditions: time 140.0 min
[13] = molecular target: Phosphatidylinositol 4,5-bisphosphate 3-kinase catalytic subunit gamma isoform (Homo sapiens) (UniProt P48736); test: Inhibition of PI3Kg (unknown origin) at 100 uM preincubated for 20 mins followed by 33P-ATP addition measured after 2 hrs by HotSpot kinase assay relative to control; conditions: time 140.0 min
[14] = molecular target: Phosphatidylinositol 4,5-bisphosphate 3-kinase catalytic subunit delta isoform (Homo sapiens) (UniProt O00329); test: Inhibition of PI3Kd (unknown origin) at 100 uM preincubated for 20 mins followed by 33P-ATP addition measured after 2 hrs by HotSpot kinase assay relative to control; conditions: time 140.0 min
Jurkat [15] = test: Cytotoxicity against human Jurkat cells assessed as cell growth inhibition at 0.05 to 1.2 uM by MTT assay; format: functional, cell-based; conditions: dose 0.05-1.2 µM, time lower 24.0 hrs, time upper […], TDE = time-dependent effect
NAMALVA [16] = test: Cytotoxicity against human NAMALVA cells assessed as cell growth inhibition at 0.1 to 9.9 uM by MTT assay; format: functional, cell-based; conditions: dose 0.1-9.9 µM, time lower 24.0 hrs, time upper […], TDE = time-dependent effect
Jurkat [17] = test: Induction of apoptosis in human Jurkat cells at IC50 measured after 48 hrs by flow cytometry; format: functional, cell-based

T1 sequence (O60674 whole entry, the tested form may be a part): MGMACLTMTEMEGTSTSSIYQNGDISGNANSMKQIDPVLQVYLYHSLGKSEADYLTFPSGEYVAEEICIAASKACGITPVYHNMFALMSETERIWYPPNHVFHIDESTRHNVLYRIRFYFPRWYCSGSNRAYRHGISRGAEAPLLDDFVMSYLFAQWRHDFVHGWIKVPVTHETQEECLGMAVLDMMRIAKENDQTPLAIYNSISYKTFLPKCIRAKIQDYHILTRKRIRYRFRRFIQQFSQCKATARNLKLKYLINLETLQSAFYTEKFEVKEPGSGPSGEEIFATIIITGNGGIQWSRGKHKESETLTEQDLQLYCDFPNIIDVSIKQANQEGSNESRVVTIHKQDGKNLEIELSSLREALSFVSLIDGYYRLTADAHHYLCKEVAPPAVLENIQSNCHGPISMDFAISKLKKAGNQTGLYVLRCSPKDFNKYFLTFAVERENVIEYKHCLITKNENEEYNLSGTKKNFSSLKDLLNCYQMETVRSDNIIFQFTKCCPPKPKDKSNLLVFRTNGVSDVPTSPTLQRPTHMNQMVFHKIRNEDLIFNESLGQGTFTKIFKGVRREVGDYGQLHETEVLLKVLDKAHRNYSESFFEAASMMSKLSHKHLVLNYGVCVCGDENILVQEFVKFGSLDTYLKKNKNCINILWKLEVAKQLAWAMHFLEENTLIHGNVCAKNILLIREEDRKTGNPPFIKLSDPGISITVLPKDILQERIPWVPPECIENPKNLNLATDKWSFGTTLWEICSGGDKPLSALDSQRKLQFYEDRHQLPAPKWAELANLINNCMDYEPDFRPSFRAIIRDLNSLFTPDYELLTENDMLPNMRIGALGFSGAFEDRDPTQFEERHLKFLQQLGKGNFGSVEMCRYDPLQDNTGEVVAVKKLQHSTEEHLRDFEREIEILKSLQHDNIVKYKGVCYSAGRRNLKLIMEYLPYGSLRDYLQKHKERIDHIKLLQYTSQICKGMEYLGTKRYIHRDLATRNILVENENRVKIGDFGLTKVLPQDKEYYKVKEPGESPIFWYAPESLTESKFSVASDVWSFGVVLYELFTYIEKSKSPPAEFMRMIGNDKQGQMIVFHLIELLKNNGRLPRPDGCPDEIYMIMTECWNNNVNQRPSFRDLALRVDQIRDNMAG
Chain of Cyclin-dependent kinase 4 (Homo sapiens) (P11802 whole entry): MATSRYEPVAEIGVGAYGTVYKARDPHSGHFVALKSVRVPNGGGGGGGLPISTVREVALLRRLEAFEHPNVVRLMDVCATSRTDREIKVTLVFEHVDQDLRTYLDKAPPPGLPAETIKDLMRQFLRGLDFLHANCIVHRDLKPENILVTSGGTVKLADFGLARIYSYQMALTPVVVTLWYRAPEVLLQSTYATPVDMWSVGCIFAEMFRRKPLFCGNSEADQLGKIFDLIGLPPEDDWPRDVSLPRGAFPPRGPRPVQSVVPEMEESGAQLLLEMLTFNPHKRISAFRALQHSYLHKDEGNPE
Chain of Tyrosine-protein kinase BTK (Homo sapiens) (Q06187 whole entry): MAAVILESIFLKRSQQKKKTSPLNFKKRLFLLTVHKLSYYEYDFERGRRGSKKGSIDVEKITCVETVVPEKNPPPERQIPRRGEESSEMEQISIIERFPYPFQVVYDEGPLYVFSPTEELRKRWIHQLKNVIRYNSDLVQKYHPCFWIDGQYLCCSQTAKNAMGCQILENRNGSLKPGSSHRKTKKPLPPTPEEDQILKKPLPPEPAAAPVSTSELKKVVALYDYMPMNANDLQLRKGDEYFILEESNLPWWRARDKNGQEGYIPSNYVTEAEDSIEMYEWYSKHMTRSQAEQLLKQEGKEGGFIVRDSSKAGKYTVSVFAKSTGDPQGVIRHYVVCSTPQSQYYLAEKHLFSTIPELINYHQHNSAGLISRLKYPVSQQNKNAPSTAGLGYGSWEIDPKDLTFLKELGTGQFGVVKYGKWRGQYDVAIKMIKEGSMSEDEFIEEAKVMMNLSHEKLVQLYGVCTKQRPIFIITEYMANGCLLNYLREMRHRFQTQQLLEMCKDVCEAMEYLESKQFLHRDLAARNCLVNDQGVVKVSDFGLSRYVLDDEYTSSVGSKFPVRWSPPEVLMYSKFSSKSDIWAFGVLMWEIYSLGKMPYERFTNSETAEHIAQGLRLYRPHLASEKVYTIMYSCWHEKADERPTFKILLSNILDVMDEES
Chain of Phosphatidylinositol 4,5-bisphosphate 3-kinase catalytic subunit gamma isoform (Homo sapiens) (P48736 whole entry, looked up, canonical isoform): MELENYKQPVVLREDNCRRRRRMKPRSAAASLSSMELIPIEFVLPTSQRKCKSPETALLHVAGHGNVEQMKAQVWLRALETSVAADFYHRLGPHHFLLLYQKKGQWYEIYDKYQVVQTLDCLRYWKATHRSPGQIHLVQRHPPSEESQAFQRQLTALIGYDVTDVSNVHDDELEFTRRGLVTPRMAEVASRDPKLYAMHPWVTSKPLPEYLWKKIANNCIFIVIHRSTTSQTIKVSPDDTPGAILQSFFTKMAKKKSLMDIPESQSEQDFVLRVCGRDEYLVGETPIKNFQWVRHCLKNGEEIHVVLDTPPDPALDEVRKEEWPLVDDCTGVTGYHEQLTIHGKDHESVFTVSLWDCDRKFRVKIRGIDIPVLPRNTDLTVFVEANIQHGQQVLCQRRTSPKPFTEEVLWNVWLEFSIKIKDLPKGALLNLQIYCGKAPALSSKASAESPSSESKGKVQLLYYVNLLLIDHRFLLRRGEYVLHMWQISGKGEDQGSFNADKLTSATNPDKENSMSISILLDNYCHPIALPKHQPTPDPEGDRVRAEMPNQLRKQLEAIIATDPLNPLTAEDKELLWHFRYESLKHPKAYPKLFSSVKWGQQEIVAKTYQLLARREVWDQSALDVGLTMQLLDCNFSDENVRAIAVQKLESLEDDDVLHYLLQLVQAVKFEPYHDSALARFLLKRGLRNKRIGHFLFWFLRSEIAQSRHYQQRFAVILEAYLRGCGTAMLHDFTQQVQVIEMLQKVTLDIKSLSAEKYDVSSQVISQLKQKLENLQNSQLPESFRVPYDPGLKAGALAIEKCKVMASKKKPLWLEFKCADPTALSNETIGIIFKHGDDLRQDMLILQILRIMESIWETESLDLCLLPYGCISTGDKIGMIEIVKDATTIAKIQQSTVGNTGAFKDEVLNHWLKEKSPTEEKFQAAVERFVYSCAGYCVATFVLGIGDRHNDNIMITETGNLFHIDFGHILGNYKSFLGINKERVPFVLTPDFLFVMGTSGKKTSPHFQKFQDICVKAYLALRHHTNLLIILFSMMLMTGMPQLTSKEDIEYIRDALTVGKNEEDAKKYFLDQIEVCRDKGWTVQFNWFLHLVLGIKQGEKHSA
Chain of Phosphatidylinositol 4,5-bisphosphate 3-kinase catalytic subunit beta isoform (Homo sapiens) (P42338 whole entry, looked up, canonical isoform): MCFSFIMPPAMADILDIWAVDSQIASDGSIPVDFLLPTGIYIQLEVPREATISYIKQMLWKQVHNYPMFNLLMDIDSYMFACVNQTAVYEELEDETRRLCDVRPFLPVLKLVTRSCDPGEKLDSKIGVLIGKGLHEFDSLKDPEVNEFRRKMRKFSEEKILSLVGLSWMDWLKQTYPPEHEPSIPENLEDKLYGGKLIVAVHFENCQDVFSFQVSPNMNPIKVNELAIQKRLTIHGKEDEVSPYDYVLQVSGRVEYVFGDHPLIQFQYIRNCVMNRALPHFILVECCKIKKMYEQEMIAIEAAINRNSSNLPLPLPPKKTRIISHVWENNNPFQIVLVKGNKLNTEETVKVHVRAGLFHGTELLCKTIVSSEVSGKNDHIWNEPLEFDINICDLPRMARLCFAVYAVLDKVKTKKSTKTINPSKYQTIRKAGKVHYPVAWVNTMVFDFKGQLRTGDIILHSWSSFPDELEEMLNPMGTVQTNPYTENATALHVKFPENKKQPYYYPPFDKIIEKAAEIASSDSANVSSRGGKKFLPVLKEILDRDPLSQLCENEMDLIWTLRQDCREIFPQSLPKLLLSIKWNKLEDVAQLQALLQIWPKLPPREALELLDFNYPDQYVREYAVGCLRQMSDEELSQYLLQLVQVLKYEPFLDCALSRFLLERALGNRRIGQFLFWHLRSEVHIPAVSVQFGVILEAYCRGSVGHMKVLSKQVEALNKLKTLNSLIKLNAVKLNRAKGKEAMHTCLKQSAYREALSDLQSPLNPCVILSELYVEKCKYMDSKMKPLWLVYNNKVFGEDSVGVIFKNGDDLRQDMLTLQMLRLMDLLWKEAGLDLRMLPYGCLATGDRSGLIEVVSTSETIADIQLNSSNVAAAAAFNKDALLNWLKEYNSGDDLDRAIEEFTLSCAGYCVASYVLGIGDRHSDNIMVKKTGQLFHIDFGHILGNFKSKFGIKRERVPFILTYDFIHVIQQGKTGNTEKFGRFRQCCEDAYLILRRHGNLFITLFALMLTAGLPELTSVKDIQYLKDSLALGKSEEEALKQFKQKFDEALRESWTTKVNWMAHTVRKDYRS

IC50 [3] [µM]	IC50 [4] [µM]	inhibition [5] [%]	inhibition [6] [%]	inhibition [7] [%]	inhibition [8] [%]	inhibition [9] [%]	inhibition [10] [%]	inhibition [11] [%]	inhibition [12] [%]	inhibition [13] [%]	inhibition [14] [%]	SMILES	inhibition (Jurkat [1])	inhibition (NAMALVA [2])	inhibition (Jurkat [15])	inhibition (NAMALVA [16])	Activity (Jurkat [17])
34.6	2.59	99.2	73.2	63.2	99.5	94.5	71.2	29.8	62	44.2	51.2	O=C(NO)c1ccc(Cn2cnc3c(Nc4ccc(F)c(Cl)c4)ncnc32)cc1	Tde	Tde	–	–	–
–	–	–	–	–	–	–	–	–	–	–	–	COc1ccc(Nc2ncnc3c2ncn3Cc2ccc(C(=O)NO)cc2)cc1	–	–	Tde	Tde	Active
